Results: patent publication US20250186410A1, “DUAL INHIBITORS OF TRYPTOPHAN DIOXYGENASES (IDO1 AND TDO) AND THEIR USE IN THERAPY” (ANTIDO THERAPEUTICS INTERNATIONAL SÀRL, priority 2022, published 2025)

How the values were obtained:
[1] = biological target: Recombinant human IDO1 (rhIDO1) (Homo sapiens (Human), UniProt P14902); assay: Enzymatic assay for IDO1 activity; format: biochemical; conditions: read-out: Isolated IDO1 Enayme Assay IC50
Procedure: Recombinant human IDO1 (rhIDO1) was expressed and purified from cultures of EC538 strain of E. coli transformed with pREP4 and pQE9-IDO plasmid. Reaction mixes were set up in 384-well microplates containing 50 mM phosphate buffer, 10 mM ascorbic, 10 μM methylene blue, 100 μg/mL catalase, 80 μM TRP, 0.01% Tween 20 (v/v) mixed with rhIDO1 (15 μL) at a final concentration of 9 nM in a total volume of 30 μL assay medium. The plates were incubated at 37° C. for 30 min, and the enzymatic reaction was terminated by adding piperidine (200 mM) and heated at 65° C. for 20 min. Fluorescence intensity was read at λex 400 nm and λem 500 nm. Test compounds were dissolved in 100% DMSO and pre-diluted in assay medium prior to adding rhIDO1. IDO1 inhibition (%) was calculated as
All experiments were carried out in triplicates, and statistical Analyses were conducted in Prism v5 (Graphpad Software, Inc., La Jolla, CA, USA).

[2] = MTT cell viability in the cellular IDO1/TDO experiments; format: cell-based; conditions: mouse, read-out: Cytotoxicity IC50
Procedure: The viability of the cells in each well in the same experiment was determined using the 3-(4,5-dimethylthiazolyl-2-yl)-2,5-diphenyltetrazolium bromide (MTT) colourimetric assay. After the removal of the supernatant for determination of IDO1 inhibition, the cells were incubated with MTT (500 μg/mL) until crystal formation was observed. Plates were centrifuged for 15 min at 2500 g, and then all the supernatant in then wells was discarded. DMSO (100 μL/well) was added to dissolve the crystals and then the absorbance in each well was measured at 570 nm. Cell viability in each well was expressed as a percentage of untreated controls. Triplicate cultures were used for all experiments unless stated otherwise.
The viability of the cells in each well in the same experiment was determined using the 3-(4,5-dimethylthiazolyl-2-yl)-2,5-diphenyltetrazolium bromide (MTT) colourimetric assay.

[3] = test system: lung cancer cell line S (cisplatin-sensitive); assay: Growth inhibition and cytotoxicity assay (trypan blue), S cells; format: cell-based; conditions: Homo sapiens
Procedure: (§1) In this study 3 different human-derived lung cancer cell lines were exposed to vehicle control (parental cells B, S and A) or long-term incubation with cisplatin (BC, SC and ALC cells). Long-term incubation with cisplatin induced cisplatin-resistance in the BC, SC and ALC cell lines.
(§2) Cells were seeded in 24-well dishes and treated with various concentrations of inhibitors (i.e. Epacadostat or AT-0174). Briefly, the culture media as well as the trypsinized cells were collected and this mixture was centrifuged at 400×g for 5 min. The supernatant was discarded, re-suspended in 1 mL of Hank's buffer, and assayed for live cells and death cells using trypan blue exclusion method.
(§3) Data from in vitro experiments were performed from three separate biological replicates which were isolated and analyzed in technical triplicates. Separate measurements using the two-tailed t-test and the results were expressed as mean±standard deviation.

[4] = test system: lung cancer cell line A (cisplatin-sensitive); assay: Growth inhibition and cytotoxicity assay (trypan blue), A cells; format: cell-based; conditions: Homo sapiens
Procedure: as §1, §2, §3

[5] = test system: lung cancer cell line SC (cisplatin-resistant); assay: Growth inhibition and cytotoxicity assay (trypan blue), SC cells; format: cell-based; conditions: Homo sapiens
Procedure: as §1, §2, §3

[6] = test system: lung cancer cell line ALC (cisplatin-resistant); assay: Growth inhibition and cytotoxicity assay (trypan blue), ALC cells; format: cell-based; conditions: Homo sapiens
Procedure: as §1, §2, §3

[7] = test system: LLC (cisplatin-sensitive cell tumours); assay: Tumor growth in syngeneic mouse model, LLC allografts; format: in vivo; conditions: epacadostat 200 mg/kg P.O. daily
Procedure: (§4) LLC or LLC-CR (1×10^6) cells were subcutaneously injected into the flank of C57B6/J male and female mice (5 mice per group, age 6-8 weeks, Jackson laboratory) and allowed to grow for 3 days (average tumor size=50 mm^3) before being treated with the selective IDO1 inhibitor epacadostat at 200 mg/kg daily or with AT-0174 at 170 mg/kg daily (a dual inhibitor of IDO1 and TDO enzymes). Both compounds were administered via oral gavage (P.O.) and diluted with 95% water+5% methylcellulose (0.5%) and stored at −20° C. Compound was prepared every 5 days. Methyl cellulose (95+5%) was used as control (“Veh”). Tumor growth was evaluated every 2 days by measuring tumor volume with calipers according to the following formula: tumor volume=width^2×length×0.5. At the end of the study, mice were sacrificed and the blood, tumor, and lymph nodes were collected and processed for KYN and tryptophan (TRP) measurement and immune cell assessment respectively.
In this example, LLC-CR from the Lewis lung mouse cell line (LLC; see methods) was used to determine, in vivo, the effect of IDO1 or dual IDO1/TDO inhibition on tumor growth. Mice were inoculated with either LLC or LLC-CR and treated with epacadostat (200 mg/kg P.O. 1/day) or AT-0174 (170 mg/kg P.O. 1/day).

[8] = test system: kynurenine (KYN) and tryptophan (TRP) levels in mouse serum; assay: KYN and TRP measurements, LLC-CR-bearing mice; format: in vivo; conditions: AT-0174 170 mg/kg, epacadostat 200 mg/kg P.O. daily
Procedure: as §4
Blood samples were collected via cardiac puncture from mice at the time of sacrifice and the Biochrom 30 amino acid analyzer (using ion exchange chromatography) was used to analyze free amino acids in samples. Briefly, 200 μL of serum extract and equal volume of 30% v/v deproteinization agent (sulfosalicylic acid) were mixed and vortexed for 10 s. Samples were then incubated at 55° C. for 20 min, spin down at 2500 g for 20 min at 4° C. Supernatant were collected, filtered through a 0.22 μm filter, and injected into the Biochrom 30. Values were reported compared to normal ranges in controls. Samples used in ion exchange chromatography are separated in an analytical fashion with an ion exchange column and buffers of increasing pH and ionic strength. After post-column derivatization with Ninhydrin, and colorimetric intensity recordings at 570 nm and 440 nm, the amino acids separated by chromatography were detected. Amino acid concentration was calculated by comparing the peak area of a particular amino acid to the peak area of an internal standard-AEC of known concentration, and then multiplying by its specific response factor from calibration.

Chain of Recombinant human IDO1 (rhIDO1) (P14902 whole entry): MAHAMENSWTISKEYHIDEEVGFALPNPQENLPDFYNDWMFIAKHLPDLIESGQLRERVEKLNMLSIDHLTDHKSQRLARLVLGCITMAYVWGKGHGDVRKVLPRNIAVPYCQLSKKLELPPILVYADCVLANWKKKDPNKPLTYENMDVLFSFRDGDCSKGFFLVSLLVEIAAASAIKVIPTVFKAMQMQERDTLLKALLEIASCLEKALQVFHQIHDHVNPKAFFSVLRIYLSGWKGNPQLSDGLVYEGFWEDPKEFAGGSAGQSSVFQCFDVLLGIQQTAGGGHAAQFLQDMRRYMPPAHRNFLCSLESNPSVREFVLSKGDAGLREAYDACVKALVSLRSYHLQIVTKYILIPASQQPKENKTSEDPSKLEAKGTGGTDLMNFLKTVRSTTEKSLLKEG

Structure (SMILES) | tumor volume, Mean ([7]; day 1, AT-0174 170 mg/kg) [mm^3] | tumor volume, Mean ([7]; day 2, AT-0174 170 mg/kg) [mm^3] | tumor volume, Mean ([7]; day 3, AT-0174 170 mg/kg) [mm^3] | tumor volume, Mean ([7]; day 4, AT-0174 170 mg/kg) [mm^3] | tumor volume, Mean ([7]; day 5, AT-0174 170 mg/kg) [mm^3] | tumor volume, Mean ([7]; day 6, AT-0174 170 mg/kg) [mm^3] | tumor volume, Mean ([7]; day 7, AT-0174 170 mg/kg) [mm^3] | tumor volume, Mean ([7]; day 8, AT-0174 170 mg/kg) [mm^3] | tumor volume, Mean ([7]; day 9, AT-0174 170 mg/kg) [mm^3] | tumor volume, Mean ([7]; day 10, AT-0174 170 mg/kg) [mm^3] | tumor volume, Mean ([7]; day 11, AT-0174 170 mg/kg) [mm^3] | tumor volume, Mean ([7]; day 12, AT-0174 170 mg/kg) [mm^3] | tumor volume, Mean ([7]; day 13, AT-0174 170 mg/kg) [mm^3] | tumor volume, Mean ([7]; day 14, AT-0174 170 mg/kg) [mm^3] | tumor volume, Mean ([7]; day 15, AT-0174 170 mg/kg) [mm^3] | KYN/TRP Ratio [8] | Kynurenine [8] | Tyrptophan [8] | also measured
Nc1noc2nc(Cl)c(F)cc12 [Compound 66, 6-Chloro-5-fluoroisoxazolo[5,4-b]pyridin-3-amine] | 58.0 | 79.0 | 110.0 | 125.0 | 115.2 | 124.0 | 135.0 | 140.6 | 171.0 | 230.0 | 340.0 | 430.0 | 571.8 | 645.0 | 675.0 | 1.18 ± 0.31 | 50 ± 9.7 | 85.8 ± 8.3 | IC50 [1]: < 1 µM; IC50 at 24 h [2]: > 100 µM; viability at 12.5 µM ([3]; 12.5 μM AT-0174): 78 ± 7.1%; viability at 25 µM ([3]; 25.0 μM AT-0174): 96.8 ± 19.1%; viability at 50 µM ([3]; 50.0 μM AT-0174): 70.2 ± 14%; viability at 12.5 µM ([4]; 12.5 μM AT-0174): 92.8 ± 8.5%; viability at 25 µM ([4]; 25.0 μM AT-0174): 75.1 ± 14.1%; viability at 50 µM ([4]; 50.0 μM AT-0174): 74.4 ± 7.1%; viability at 12.5 µM ([5]; 12.5 μM AT-0174): 65.7 ± 6.4%; viability at 25 µM ([5]; 25.0 μM AT-0174): 68.1 ± 2.1%; viability at 50 µM ([5]; 50.0 μM AT-0174): 70 ± 2.1%; viability at 12.5 µM ([6]; 12.5 μM AT-0174): 76.7 ± 4.2%; viability at 25 µM ([6]; 25.0 μM AT-0174): 62.5 ± 4.9%; viability at 50 µM ([6]; 50.0 μM AT-0174): 67.3 ± 13.4%
NS(=O)(=O)NCCNc1nonc1C(=NO)Nc1ccc(F)c(Br)c1 [Epacadostat, epacadostat, reference compound] | 47.0 | 108.0 | 110.0 | 124.0 | 137.0 | 151.0 | 208.0 | 290.0 | 325.0 | 409.0 | 563.0 | 625.0 | 725.0 | 785.0 | 910.0 | 2.01 ± 0.32 | 81.8 ± 11.9 | 43 ± 5.8 | –
